# Biological target: T1, human PAH with the R408W mutation (Homo sapiens, UniProt P00439, R408W)
# T1 construct: expressed in transfected cells
# T1 sequence (P00439 1-452 R408W): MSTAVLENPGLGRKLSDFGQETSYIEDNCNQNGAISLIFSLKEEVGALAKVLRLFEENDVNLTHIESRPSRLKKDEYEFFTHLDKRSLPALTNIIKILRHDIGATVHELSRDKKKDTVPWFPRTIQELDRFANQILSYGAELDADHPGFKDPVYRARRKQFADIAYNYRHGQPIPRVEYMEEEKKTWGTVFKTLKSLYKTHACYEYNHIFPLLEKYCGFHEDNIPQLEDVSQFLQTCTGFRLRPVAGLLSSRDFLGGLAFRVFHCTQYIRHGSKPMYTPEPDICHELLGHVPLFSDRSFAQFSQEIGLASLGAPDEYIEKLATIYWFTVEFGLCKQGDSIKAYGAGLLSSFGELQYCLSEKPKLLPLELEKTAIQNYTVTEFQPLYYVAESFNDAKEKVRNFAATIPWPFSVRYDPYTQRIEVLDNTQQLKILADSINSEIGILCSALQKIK
# Test: Cell Based Phenylalanine Flux Assay;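 also: Ten-point dose curve from 2-fold serial dilutions, run in duplicate at 0.5% DMSO final, tracer step used 20 µM sepiapterin and 800 µM labeled phenylalanine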
# Settings: A375 cells expressing human R408W PAH; 24 hrs with compound, then sepiapterin and 13C9,15N-Phenylalanine for 4 hours; 13C-Tyrosine by LC-MS; average where tested multiple times; read-out: AC50
# Experimental: Compounds were resuspended in DMSO, and 2-fold serial dilutions were performed to generate a 10-point dose curve. Compounds were added to plated cells in a total volume of 100 μl, and a final DMSO concentration of 0.5%. Each compound was tested in duplicate. Following compound addition, cells were placed in a 5% CO2, 37° C. tissue culture incubator for 24 hrs. […] 20 μM sepiapterin and 800 μM 13C9,15N-Phenylalanine were added. After 4 hours, cell media was removed. An aliquot of 10 μl of cell media was combined with 200 μl of extraction buffer (80% acetonitrile/20% H2O) for each well. Determination of ^13C-Tyrosine concentration was assessed by liquid chromatography mass spectrometry.
# Where a compound was tested multiple times, the average value of the tests is reported.
row,SMILES,AC50 [nM]
1,"O=C(c1nnc(C2CCC2)o1)N1CCc2[nH]cnc2[C@@H]1c1cc2ccccn2n1 [Example 1515, (R)-(5-cyclobutyl-1,3,4-oxadiazol-2-yl)(4-(pyrazolo[1,5-a]pyridin-2-yl)-6,7-dihydro-1H-imidazo[4,5-c]pyridin-5(4H)-yl)methanone]",> 5000
2,"O=C(c1nnc(C2CCC2)o1)N1CCc2[nH]cnc2[C@H]1c1cc2c(Cl)cccn2n1 [Example 1517, (S)-(4-(4-chloropyrazolo [1,5-a]pyridin-2-yl)-6,7-dihydro-1H-imidazo[4,5-c]pyridin-5(4H)-yl)(5-cyclobutyl-1,3,4-oxadiazol-2-yl)methanone]",< 500
3,"O=C(c1nnc(C2CCC2)o1)N1CCc2[nH]cnc2[C@H]1c1cc2c(C(F)F)cccn2n1 [Example 1520, (S)-(5-cyclobutyl-1,3,4-oxadiazol-2-yl)(4-(4-(difluoromethyl)pyrazolo [1,5-a]pyridin-2-yl)-6,7-dihydro-1H-imidazo[4,5-c]pyridin-5(4H)-yl)methanone]",< 500
4,"Cn1nccc1-c1nnc(C(=O)N2CCc3[nH]cnc3[C@H]2c2cc3cccc(F)n3n2)o1 [Example 1526, (S)-(4-(7-fluoropyrazolo[1,5-a]pyridin-2-yl)-6,7-dihydro-1H-imidazo[4,5-c]pyridin-5(4H)-yl)(5-(1-methyl-1H-pyrazol-5-yl)-1,3,4-oxadiazol-2-yl)methanone]",500 to 1000
5,"Cc1cnn(C)c1-c1nnc(C(=O)N2CCc3[nH]cnc3[C@@H]2c2cc3cccc(F)n3n2)o1 [Example 1529, (R)-(5-(1,4-dimethyl-1H-pyrazol-5-yl)-1,3,4-oxadiazol-2-yl)(4-(7-fluoropyrazolo [1,5-a]pyridin-2-yl)-6,7-dihydro-1H-imidazo[4,5-c]pyridin-5(4H)-yl)methanone]",1000 to 5000
6,"O=C(c1nnc(-c2cnccn2)o1)N1CCc2[nH]cnc2[C@H]1c1cc2cccc(C(F)F)n2n1 [Example 1535, (S)-(4-(7-(difluoromethyl)pyrazolo[1,5-a]pyridin-2-yl)-6,7-dihydro-1H-imidazo[4,5-c]pyridin-5(4H)-yl)(5-(pyrazin-2-yl)-1,3,4-oxadiazol-2-yl)methanone]",500 to 1000
7,"Cc1cc(-c2nnc(C(=O)N3CCc4[nH]cnc4[C@@H]3c3cc4cccc(C(F)F)n4n3)o2)nn1C [Example 1536, (R)-(4-(7-(difluoromethyl)pyrazolo[1,5-a]pyridin-2-yl)-6,7-dihydro-1H-imidazo[4,5-c]pyridin-5(4H)-yl)(5-(1,5-dimethyl-1H-pyrazol-3-yl)-1,3,4-oxadiazol-2-yl)methanone]",> 5000
8,"O=C(c1cnn2cc(-c3ccccn3)ccc12)N1CCc2[nH]cnc2[C@H]1c1cc2c(C(F)(F)F)cccn2n1 [Example 1550, (S)-(6-(pyridin-2-yl)pyrazolo [1,5-a]pyridin-3-yl)(4-(4-(trifluoromethyl)pyrazolo [1,5-a]pyridin-2-yl)-6,7-dihydro-1H-imidazo[4,5-c]pyridin-5(4H)-yl)methanone]",< 500
9,CC(C)c1nnc(C(=O)N2CCc3[nH]cnc3[C@@H]2c2cc3cccc(F)n3n2)o1 [Example 1554],> 5000

# Further lines, results first:
row,AC50 [nM],SMILES
1,500 to 1000,"O=C(c1nnc(-c2cnn(C(F)(F)F)c2)o1)N1CCc2[nH]cnc2[C@H]1c1cc2cccc(C(F)F)n2n1 [Example 1502, (S)-(4-(7-(difluoromethyl)pyrazolo[1,5-a]pyridin-2-yl)-6,7-dihydro-1H-imidazo [4,5-c]pyridin-5(4H)-yl)(5-(1-(trifluoromethyl)-1H-pyrazol-4-yl)-1,3,4-oxadiazol-2-yl)methanone]"
2,> 5000,O=C(c1nnc(-c2cnn(C(F)(F)F)c2)o1)N1CCc2[nH]cnc2[C@@H]1c1cc2c(Cl)cccn2n1 [Example 1505]
3,< 500,"O=C(c1nnc(-c2ccn(C(F)(F)F)n2)o1)N1CCc2[nH]cnc2[C@H]1c1cc2cccc(Cl)n2n1 [Example 1508, (S)-(4-(7-chloropyrazolo [1,5-a]pyridin-2-yl)-6,7-dihydro-1H-imidazo[4,5-c]pyridin-5(4H)-yl)(5-(1-(trifluoromethyl)-1H-pyrazol-3-yl)-1,3,4-oxadiazol-2-yl)methanone]"
4,> 5000,"O=C(c1nnc(-c2ccn(C(F)(F)F)n2)o1)N1CCc2[nH]cnc2[C@@H]1c1cc2cccc(Cl)n2n1 [Example 1509, (R)-(4-(7-chloropyrazolo [1,5-a]pyridin-2-yl)-6,7-dihydro-1H-imidazo[4,5-c]pyridin-5(4H)-yl)(5-(1-(trifluoromethyl)-1H-pyrazol-3-yl)-1,3,4-oxadiazol-2-yl)methanone]"
5,500 to 1000,"Cc1cccc2cc([C@@H]3c4nc[nH]c4CCN3C(=O)c3nnc(-c4ccn(C(F)(F)F)n4)o3)nn12 [Example 1510, (S)-(4-(7-methylpyrazolo [1,5-a]pyridin-2-yl)-6,7-dihydro-1H-imidazo[4,5-c]pyridin-5(4H)-yl)(5-(1-(trifluoromethyl)-1H-pyrazol-3-yl)-1,3,4-oxadiazol-2-yl)methanone]"
6,1000 to 5000,"Cc1cccc2cc([C@H]3c4nc[nH]c4CCN3C(=O)c3nnc(-c4ccn(C(F)(F)F)n4)o3)nn12 [Example 1511, (R)-(4-(7-methylpyrazolo [1,5-a]pyridin-2-yl)-6,7-dihydro-1H-imidazo[4,5-c]pyridin-5(4H)-yl)(5-(1-(trifluoromethyl)-1H-pyrazol-3-yl)-1,3,4-oxadiazol-2-yl)methanone]"
7,< 500,"O=C(c1nnc(C2CCC2)o1)N1CCc2[nH]cnc2[C@H]1c1cc2c(C(F)(F)F)cccn2n1 [Example 1519, (S)-(5-cyclobutyl-1,3,4-oxadiazol-2-yl)(4-(4-(trifluoromethyl)pyrazolo [1,5-a]pyridin-2-yl)-6,7-dihydro-1H-imidazo[4,5-c]pyridin-5(4H)-yl)methanone]"
8,> 5000,"Cn1nccc1-c1nnc(C(=O)N2CCc3[nH]cnc3[C@@H]2c2cc3c(C(F)F)cccn3n2)o1 [Example 1533, (R)-(4-(4-(difluoromethyl)pyrazolo[1,5-a]pyridin-2-yl)-6,7-dihydro-1H-imidazo [4,5-c]pyridin-5(4H)-yl)(5-(1-methyl-1H-pyrazol-5-yl)-1,3,4-oxadiazol-2-yl)methanone]"
9,> 5000,"O=C(c1nnc(-c2cnn(C(F)(F)F)c2)o1)N1CCc2[nH]cnc2[C@@H]1c1cc2c(C(F)(F)F)cccn2n1 [Example 1539, (R)-(5-(1-(trifluoromethyl)-1H-pyrazol-4-yl)-1,3,4-oxadiazol-2-yl)(4-(4-(trifluoromethyl)pyrazolo[1,5-a]pyridin-2-yl)-6,7-dihydro-1H-imidazo[4,5-c]pyridin-5(4H)-yl)methanone]"
10,1000 to 5000,"O=C(c1nnc(-c2cnn(C(F)(F)F)c2)o1)N1CCc2[nH]cnc2[C@@H]1c1cc2c(F)cccn2n1 [Example 1541, (R)-(4-(4-fluoropyrazolo [1,5-a]pyridin-2-yl)-6,7-dihydro-1H-imidazo[4,5-c]pyridin-5(4H)-yl)(5-(1-(trifluoromethyl)-1H-pyrazol-4-yl)-1,3,4-oxadiazol-2-yl)methanone]"
11,< 500,"Cn1cc(-c2ccc3c(C(=O)N4CCc5[nH]cnc5[C@H]4c4cc5c(C(F)(F)F)cccn5n4)cnn3c2)cn1 [Example 1552, (S)-(6-(1-methyl-1H-pyrazol-4-yl)pyrazolo[1,5-a]pyridin-3-yl)(4-(4-(trifluoromethyl)pyrazolo[1,5-a]pyridin-2-yl)-6,7-dihydro-1H-imidazo[4,5-c]pyridin-5(4H)-yl)methanone]"
